Laboratory results: ChEMBL document CHEMBL4325881, “Facile synthesis of 2-aryl 5-hydroxy benzo[d]oxazoles and their in vitro anti-proliferative effects on various cancer cell lines” (Bioorg Med Chem Lett, 2018)
Activity calls are given as the source filed them. The rule behind the calls is not given here.

Tests used:
HaCaT = assay: Cytotoxicity against human HaCaT cells assessed as reduction in cell viability after 48 hrs by MTT assay; type: cell-based
A549 = assay: Cytotoxicity against human A549 cells assessed as reduction in cell viability after 48 hrs by MTT assay; type: functional, cell-based; conditions: A549, 48 h
[1] = Cytotoxicity against human […] cells assessed as reduction in cell viability after 48 hrs by MTT assay; type: functional, cell-based
HepG2 [2] = assay: Cytotoxicity against human HepG2 cells assessed as reduction in cell viability after 48 hrs by MTT assay; type: functional, cell-based; conditions: HepG2, 48 h
MDA-MB-231 = assay: Cytotoxicity against human MDA-MB-231 cells assessed as reduction in cell viability after 48 hrs by MTT assay; type: functional, cell-based; conditions: MDA-MB-231, 48 h
HeLa = assay: Cytotoxicity against human HeLa cells assessed as reduction in cell viability after 48 hrs by MTT assay; type: functional, cell-based
HepG2 [3] = assay: Induction of apoptosis in human HepG2 cells assessed as late apoptotic cells at 2.5 uM after 48 hrs by annexin V-FITC/propidium iodide staining-based flow cytometry analysis (reference value: 0.26%); type: functional
HepG2 [4] = assay: Induction of apoptosis in human HepG2 cells assessed as necrotic cells at 0.5 uM after 48 hrs by annexin V-FITC/propidium iodide staining-based flow cytometry analysis (reference value: 0.62%); type: functional
HepG2 [5] = assay: Induction of apoptosis in human HepG2 cells assessed as reduction in number of viable cells at 0.5 to 2.5 uM after 48 hrs by inverted phase contrast microscopic analysis; type: functional, cell-based
HepG2 [6] = assay: Induction of apoptosis in human HepG2 cells assessed as viable cells at 1 uM after 48 hrs by annexin V-FITC/propidium iodide staining-based flow cytometry analysis (reference value: 98.14%); type: functional; conditions: HepG2, 48 h, read-out: Activity
HepG2 [7] = assay: Induction of apoptosis in human HepG2 cells assessed as apoptotic body formation after 48 hrs by acridine orange/ethidium bromide staining-based fluorescence microscopic analysis; type: functional, cell-based
HepG2 [8] = assay: Induction of apoptosis in human HepG2 cells assessed as fragmented nuclei at 0.5 to 2.5 uM after 48 hrs by DAPI staining-based fluorescence microscopic analysis; type: functional, cell-based
HepG2 [9] = assay: Induction of apoptosis in human HepG2 cells assessed as […] deformation at 0.5 to 2.5 uM after 48 hrs by inverted phase contrast microscopic analysis; type: functional, cell-based
HepG2 [10] = assay: Induction of apoptosis in human HepG2 cells after 48 hrs by annexin V-FITC/propidium iodide staining-based flow cytometry analysis; type: functional, cell-based
HepG2 [11] = assay: Cell cycle arrest in human HepG2 cells assessed as accumulation at sub-G1 phase at 1 uM after 24 hrs by propidium iodide staining based flow cytometric analysis (reference value: 1.73%); type: functional
HepG2 [12] = assay: Induction of apoptosis in human HepG2 cells assessed as condensed nuclei at 0.5 to 2.5 uM after 48 hrs by DAPI staining-based fluorescence microscopic analysis; type: functional, cell-based
HepG2 [13] = assay: Induction of apoptosis in human HepG2 cells assessed as mitochondrial depolarized cells level at 2.5 uM after 48 hrs by JC-1 staining based flow cytometric method (reference value: […]); type: functional
HepG2 [14] = assay: Induction of apoptosis in human HepG2 cells assessed as chromatin condensation after 48 hrs by acridine orange/ethidium bromide staining-based fluorescence microscopic analysis; type: functional, cell-based
HepG2 [15] = assay: Cell cycle arrest in human HepG2 cells assessed as accumulation at sub-G1 phase at 0.5 uM after 24 hrs by propidium iodide staining based flow cytometric analysis (reference value: 1.73%); type: functional
HepG2 [16] = assay: Induction of apoptosis in human HepG2 cells assessed as mitochondrial polarized cells level at 2.5 uM after 48 hrs by JC-1 staining based flow cytometric method (reference value: 93.02%); type: functional
HepG2 [17] = assay: Induction of apoptosis in human HepG2 cells assessed as cell shrinkage at 0.5 to 2.5 uM after 48 hrs by inverted phase contrast microscopic analysis; type: functional, cell-based
HepG2 [18] = assay: Cell cycle arrest in human HepG2 cells assessed as accumulation at sub-G1 phase at 2.5 uM after 24 hrs by propidium iodide staining based flow cytometric analysis (reference value: 1.73%); type: functional
HepG2 [19] = assay: Induction of apoptosis in human HepG2 cells assessed as early apoptotic cells at 0.5 uM after 48 hrs by annexin V-FITC/propidium iodide staining-based flow cytometry analysis (reference value: 0.98%); type: functional
HepG2 [20] = assay: Cell cycle arrest in human HepG2 cells assessed as accumulation at S phase at 0.5 uM after 24 hrs by propidium iodide staining based flow cytometric analysis (reference value: 7.57%); type: functional
HepG2 [21] = assay: Induction of apoptosis in human HepG2 cells assessed as mitochondrial polarized cells level at 1 uM after 48 hrs by JC-1 staining based flow cytometric method (reference value: 93.02%); type: functional
HepG2 [22] = assay: Cell cycle arrest in human HepG2 cells assessed as accumulation at G2/M phase at 1 uM after 24 hrs by propidium iodide staining based flow cytometric analysis (reference value: 28.79%); type: functional
HepG2 [23] = assay: Induction of apoptosis in human HepG2 cells assessed as mitochondrial depolarized cells level at 1 uM after 48 hrs by JC-1 staining based flow cytometric method (reference value: […]); type: functional
HepG2 [24] = assay: Induction of ROS accumulation in human HepG2 cells after 48 hrs by DCF-DA staining based fluorescence microscopic analysis; type: functional, cell-based
HepG2 [25] = assay: Induction of apoptosis in human HepG2 cells assessed as mitochondrial polarized cells level at 0.5 uM after 48 hrs by JC-1 staining based flow cytometric method (reference value: 93.02%); type: functional
HepG2 [26] = assay: Cell cycle arrest in human HepG2 cells assessed as accumulation at G0/G1 phase at 0.5 uM after 24 hrs by propidium iodide staining based flow cytometric analysis (reference value: 49.93%); type: functional
HepG2 [27] = assay: Induction of apoptosis in human HepG2 cells assessed as late apoptotic cells at 0.5 uM after 48 hrs by annexin V-FITC/propidium iodide staining-based flow cytometry analysis (reference value: 0.26%); type: functional
HepG2 [28] = assay: Induction of apoptosis in human HepG2 cells assessed as mitochondrial depolarized cells level at 0.5 uM after 48 hrs by JC-1 staining based flow cytometric method (reference value: […]); type: functional
HepG2 [29] = assay: Induction of apoptosis in human HepG2 cells assessed as early apoptotic cells at 2.5 uM after 48 hrs by annexin V-FITC/propidium iodide staining-based flow cytometry analysis (reference value: 0.98%); type: functional
HepG2 [30] = assay: Induction of apoptosis in human HepG2 cells assessed as cell shrinkage after 48 hrs by acridine orange/ethidium bromide staining-based fluorescence microscopic analysis; type: functional
HepG2 [31] = assay: Induction of apoptosis in human HepG2 cells assessed as horse-shoe shaped nuclei at 0.5 to 2.5 uM after 48 hrs by DAPI staining-based fluorescence microscopic analysis; type: functional, cell-based
HepG2 [32] = assay: Anticlonogenic activity against human HepG2 cells incubated for 24 hrs followed by fresh media replacement and measured after 12 days by crystal violet staining based assay; type: functional, cell-based
HepG2 [33] = assay: Cell cycle arrest in human HepG2 cells assessed as accumulation at G0/G1 phase at 1 uM after 24 hrs by propidium iodide staining based flow cytometric analysis (reference value: 49.93%); type: functional
HepG2 [34] = assay: Induction of apoptosis in human HepG2 cells assessed as necrotic cells at 2.5 uM after 48 hrs by annexin V-FITC/propidium iodide staining-based flow cytometry analysis (reference value: 0.62%); type: functional
HepG2 [35] = assay: Induction of apoptosis in human HepG2 cells assessed as viable cells at 2.5 uM after 48 hrs by annexin V-FITC/propidium iodide staining-based flow cytometry analysis (reference value: 98.14%); type: functional; conditions: HepG2, 48 h, read-out: Activity
HepG2 [36] = assay: Induction of apoptosis in human HepG2 cells assessed as viable cells at 0.5 uM after 48 hrs by annexin V-FITC/propidium iodide staining-based flow cytometry analysis (reference value: 98.14%); type: functional; conditions: HepG2, 48 h, read-out: Activity
HepG2 [37] = assay: Cell cycle arrest in human HepG2 cells assessed as accumulation at G0/G1 phase at 2.5 uM after 24 hrs by propidium iodide staining based flow cytometric analysis (reference value: 49.93%); type: functional
HepG2 [38] = assay: Cell cycle arrest in human HepG2 cells assessed as accumulation at S phase at 2.5 uM after 24 hrs by propidium iodide staining based flow cytometric analysis (reference value: 7.57%); type: functional
HepG2 [39] = assay: Induction of apoptosis in human HepG2 cells assessed as necrotic cells at 1 uM after 48 hrs by annexin V-FITC/propidium iodide staining-based flow cytometry analysis (reference value: 0.62%); type: functional
HepG2 [40] = assay: Cell cycle arrest in human HepG2 cells assessed as accumulation at G2/M phase at 2.5 uM after 24 hrs by propidium iodide staining based flow cytometric analysis (reference value: 28.79%); type: functional
HepG2 [41] = assay: Cell cycle arrest in human HepG2 cells assessed as accumulation at S phase at 1 uM after 24 hrs by propidium iodide staining based flow cytometric analysis (reference value: 7.57%); type: functional
HepG2 [42] = assay: Cell cycle arrest in human HepG2 cells assessed as accumulation at G2/M phase at 0.5 uM after 24 hrs by propidium iodide staining based flow cytometric analysis (reference value: 28.79%); type: functional
HepG2 [43] = assay: Induction of apoptosis in human HepG2 cells assessed as increase in loss of mitochondrial membrane potential after 48 hrs by JC-1 staining based flow cytometric method; type: functional, cell-based
HepG2 [44] = assay: Induction of apoptosis in human HepG2 cells assessed as late apoptotic cells at 1 uM after 48 hrs by annexin V-FITC/propidium iodide staining-based flow cytometry analysis (reference value: 0.26%); type: functional
HepG2 [45] = assay: Induction of apoptosis in human HepG2 cells assessed as membrane blebbing after 48 hrs by acridine orange/ethidium bromide staining-based fluorescence microscopic analysis; type: functional, cell-based
HepG2 [46] = assay: Induction of apoptosis in human HepG2 cells assessed as early apoptotic cells at 1 uM after 48 hrs by annexin V-FITC/propidium iodide staining-based flow cytometry analysis (reference value: 0.98%); type: functional

O=Cc1c(O)ccc2oc(-c3ccccc3Cl)nc12
IC50 (HaCaT): 12.1 µM | IC50 (A549): 7.68 µM | IC50 [1]: 14 µM | IC50 (HepG2 [2]): 10.5 µM | IC50 (MDA-MB-231): 5.66 µM | IC50 (HeLa): 14.1 µM

O=Cc1c(O)ccc2oc(-c3cccc(Cl)c3)nc12
Activity (HepG2 [3]): 1.64% | Activity (HepG2 [4]): 2.42% | IC50 (HaCaT): 17.8 µM | Activity (HepG2 [5]): Active | viability at 1 µM (HepG2 [6]): 63.4% | Activity (HepG2 [7]): Dose-dependent effect | IC50 (A549): 1.87 µM | Activity (HepG2 [8]): Active | Activity (HepG2 [9]): Active | Activity (HepG2 [10]): Dose-dependent effect | Activity (HepG2 [11]): 5.64% | Activity (HepG2 [12]): Active | Activity (HepG2 [13]): 71.49% | Activity (HepG2 [14]): Dose-dependent effect | Activity (HepG2 [15]): 2.42% | Activity (HepG2 [16]): 29.19% | Activity (HepG2 [17]): Active | IC50 [1]: 0.98 µM | Activity (HepG2 [18]): 13.2% | Activity (HepG2 [19]): 12.5% | Activity (HepG2 [20]): 6.61% | Activity (HepG2 [21]): 74.54% | Activity (HepG2 [22]): 27.15% | Activity (HepG2 [23]): 25.87% | IC50 (HepG2 [2]): 0.81 µM | Activity (HepG2 [24]): Dose-dependent effect | Activity (HepG2 [25]): 85.46% | Activity (HepG2 [26]): 59.01% | Activity (HepG2 [27]): 0.75% | Activity (HepG2 [28]): 14.91% | Activity (HepG2 [29]): 56.17% | Activity (HepG2 [30]): Dose-dependent effect | IC50 (MDA-MB-231): 1.33 µM | IC50 (HeLa): 2.18 µM | Activity (HepG2 [31]): Active | Activity (HepG2 [32]): Dose-dependent effect | Activity (HepG2 [33]): 50.36% | Activity (HepG2 [34]): 2.01% | viability at 2.5 µM (HepG2 [35]): 40.2% | viability at 0.5 µM (HepG2 [36]): 83.3% | Activity (HepG2 [37]): 45.52% | Activity (HepG2 [38]): 8.32% | Activity (HepG2 [39]): 1.84% | Activity (HepG2 [40]): 22.57% | Activity (HepG2 [41]): 5.53% | Activity (HepG2 [42]): 23.05% | Activity (HepG2 [43]): Dose-dependent effect | Activity (HepG2 [44]): 0.55% | Activity (HepG2 [45]): Dose-dependent effect | Activity (HepG2 [46]): 34.2%

CC(=O)c1c(O)ccc2oc(-c3ccccc3C)nc12
IC50 (HaCaT): 8.94 µM | IC50 (A549): 20.1 µM | IC50 [1]: 17.5 µM | IC50 (HepG2 [2]): 11.7 µM | IC50 (MDA-MB-231): 30.1 µM | IC50 (HeLa): 19.2 µM

Cc1ccccc1-c1nc2c(C=O)c(O)ccc2o1
IC50 (HaCaT): 12.2 µM | IC50 (A549): 2.21 µM | IC50 [1]: 9.73 µM | IC50 (HepG2 [2]): 4.74 µM | IC50 (MDA-MB-231): 5.36 µM | IC50 (HeLa): 15.4 µM

O=Cc1c(O)ccc2oc(-c3ccco3)nc12
IC50 (HaCaT): > 30 µM | IC50 (A549): > 30 µM | IC50 [1]: > 30 µM | IC50 (HepG2 [2]): > 30 µM | IC50 (MDA-MB-231): > 30 µM | IC50 (HeLa): > 30 µM

O=Cc1c(O)ccc2oc(-c3ccccc3[N+](=O)[O-])nc12
IC50 (HaCaT): 20 µM | IC50 (A549): 7.03 µM | IC50 [1]: 18.4 µM | IC50 (HepG2 [2]): 17.4 µM | IC50 (MDA-MB-231): 9.18 µM | IC50 (HeLa): 14.5 µM
